Patent US4418205A, “16-Amino-18,19,20-trinor-prostaglandin derivatives, and acid addition salts” (priority 1980, dated 1983)
Read-outs that look alike come from different tables or passages of the source.

Legend:
[1] = system: mice being in the 16th to 17th day of their pregnancy; experiment: Abortion induction in mice in the 3rd trimestre of pregnancy, subcutaneous; assay type: in vivo; details: pregnant mice; for ED50: Mus musculus, sc, 16th to 17th day, subcutaneous, abortions within 48 hours, obtained by interpolation, read-out: Approx. ED50 (dose inducing abortion in 50 percent of the animals)
Procedure: According to one of the test methods /M. J. K. Harper and R. C. Skarnes: Advances in Biosciences 9, 789 /1973// the test material was administered subcutaneously to mice being in the 16th to 17th day of their pregnancy /3rd trimestre/, then the number of abortions ensuing with 48 hours was registered, as well as the live and dead fetuses following the removal of the uterus, and the scars on the placenta.
(§1) Applying the above methods the dose-response relationship was established at PGF2α, and its methyl ester, as well as the compounds of general formula I of the present invention. The number of animals was 5 per dose.

[2] = system: hamsters being in the 4th, 5th, and 6th day of pregnancy; experiment: Interruption of early pregnancy in hamsters, subcutaneous; assay type: in vivo, hamster; details: for ED50: Mesocricetus auratus, sc, hamster, 1st trimestre, treated subcutaneously day 4, 5, 6, autopsy day 8, read-out: Approx. ED50
Procedure: (§2) Here hamsters being in the 4th, 5th, and 6th day of pregnancy were treated subcutaneously, and following autopsy on the 8th day, the number of intrauterine embryonal implantations, as well as the condition of the ovaria were investigated /N. S. Crossley: Prostaglandins 10, 5 /1975//. Similarly rats were treated on the 4th, 5th, 6th and 7th day of pregnancy, and killed on the 9th day, and the interruption of pregnancy registered at the autopsy /W. Skuballa et al.: J. Med. Chem. […], 443 /1978//.
as §1
(§3) A similar increase in potency could be observed at the treatment of animals being in the 1st trimestre of their pregnancy.
The 50 fold increase in potency compared to that of PGF2α is especially worth mentioning in the case of hamsters, as this test is suitable for the sensitive detection of the abortive effect of a given compound if it has lutheolytic activity.

[3] = system: rats treated on the 4th, 5th, 6th and 7th day of pregnancy; experiment: Interruption of early pregnancy in rats; assay type: in vivo; details: rat, 1st trimestre, treated day 4, 5, 6, 7, killed day 9; read-out: Approx. ED50
Procedure: as §2, §1, §3

pregnant mice = details: mouse, in vivo

| induction of diarrhoea (pregnant mice; 3 mg/kg) | Compound | ED50 [1] [mg/kg] | ED50 [2] [mg/kg] | ED50 [3] [mg/kg] | incidence of diarrhoea (pregnant mice; 10 mg/kg) | potency compared to PGF2α ([1]; from ED50 values) [fold] | potency compared to PGF2α methyl ester ([1]; from ED50 values) [fold] | increase in potency compared to that of PGF2α ([2]; hamsters) [fold] | incidence of diarrhoea (pregnant mice; 3 mg/kg) |
| --- | --- | --- | --- | --- | --- | --- | --- | --- | --- |
| – | CCCCC[C@H](O)/C=C/[C@@H]1[C@@H](C/C=C\CCCC(=O)O)[C@@H](O)C[C@H]1O [PGF2α, reference compound] | ~16 | ~0.025 | ~1 | over 50% | – | – | – | – |
| failed to induce diarrhoea | COC(=O)CCC/C=C\C[C@@H]1[C@@H](/C=C/C(O)[C@@H](N)Cc2ccccc2)[C@H](O)C[C@@H]1O (single isomer, unassigned) [9α,11α,15/.xi./-Trihydroxy-16/S/-amino-17-phenyl-5-cis,13-trans-18,19,20-trinor-prostadienoic acid methyl ester] | ~1.2 | ~0.0005 | ~0.1 | – | 13 | 8 | 50 | – |
| – | CCCCC[C@H](O)/C=C/[C@@H]1[C@@H](C/C=C\CCCC(=O)OC)[C@@H](O)C[C@H]1O [PGF2α -methyl ester, reference compound] | ~10 | – | – | – | – | – | – | over 50% |
